Measured values as given in US10597388B2, “Pyridazinone herbicides” (FMC CORPORATION, priority 2014, dated 2020).

How the values were obtained:
Type in all cases: in vivo
[1] = test system: wheat (winter wheat, Triticum aestivum); experiment: Test C greenhouse herbicide test, pre- and postemergence
In short: (§1)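 Preemergence: seeds sown in a loam soil–sand blend and sprayed with test chemicals in a non-phytotoxic solvent mixture containing surfactant. Postemergence: plants grown in peat-based medium and treated at 2 to 18 cm (1- to 4-leaf stage). After 13 to 15 d in a greenhouse, injury was visually rated 0–100 against controls.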

[2] = test system: johnsongrass (Sorghum halepense); experiment: as above
In short: as §1

[3] = test system: ragweed (common ragweed, Ambrosia elatior); experiment: as above
In short: as §1

[4] = test system: morningglory (Ipomoea coccinea); experiment: as above
In short: as §1

[5] = test system: crabgrass, large (large crabgrass, Digitaria sanguinalis); experiment: as above
In short: as §1

[6] = test system: oilseed rape (Brassica napus); experiment: as above
In short: as §1

[7] = test system: foxtail, giant (giant foxtail, Setaria faberii); experiment: as above
In short: as §1

[8] = test system: lambsquarters (Chenopodium album); experiment: as above
In short: as §1

[9] = test system: galium (catchweed bedstraw, Galium aparine); experiment: as above
In short: as §1

[10] = test system: barnyardgrass (Echinochloa crus-galli); experiment: as above
In short: as §1

[11] = test system: ryegrass, Italian (Italian ryegrass, Lolium multiflorum); experiment: as above
In short: as §1

[12] = test system: galium (catchweed bedstraw, Galium aparine); experiment: Test A greenhouse herbicide test, postemergence
In short: (§2)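 Plants grown in loam soil/sand blend pots were treated postemergence at 2 to 10 cm height, one- to two-leaf stage, with formulated test chemicals. After approximately 10 d in a greenhouse, injury was rated visually against untreated controls on a 0 to 100 scale (0 no effect, 100 complete control).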

[13] = test system: blackgrass (Alopecurus myosuroides); experiment: Test A greenhouse herbicide test, postemergence
In short: as §2

[14] = Postemergence, 31 g ai/ha, 0 to 100 scale (0 no effect, 100 complete control)
[15] = Postemergence, 125 g ai/ha, scale 0 to 100, 0 is no effect, 100 is complete control
[16] = Postemergence, 250 g ai/ha, scale 0 to 100, 0 no effect, 100 complete control, 13 to 15 d
[17] = Preemergence, 31 g ai/ha, scale 0 to 100, 0 is no effect, 100 is complete control
[18] = Preemergence, 62 g ai/ha, scale 0 to 100, 0 is no effect, 100 is complete control
[19] = Preemergence, 125 g ai/ha, scale 0 to 100, 0 is no effect, 100 is complete control
[20] = Preemergence, 250 g ai/ha, scale 0 to 100, 0 no effect, 100 complete control
[21] = postemergence, 62 g ai/ha, scale 0 to 100, 0 no effect, 100 complete control
[22] = 125 g ai/ha, 0 to 100 scale where 0 is no effect and 100 is complete control
[23] = 500 g ai/ha, 0 to 100 scale, 0 is no effect, 100 is complete control

Cc1ccc2ccccc2c1-c1c(OC(=O)OC(C)C)c(C)nn(C)c1=O [Compound 72]
Wheat plant response rating [1, 14]: 30
Plant response rating, Wheat [1, 15]: 5
Plant response rating, Wheat [1, 16]: 35
Plant response rating, Wheat [1, 17]: 0
Plant response rating, Wheat [1, 18]: 0
Plant response rating, Wheat [1, 19]: 30
Wheat plant response rating [1, 20]: 40
Wheat plant response rating [1, 21]: 30
Johnsongrass plant response rating [2, 14]: 5
Plant response rating, Johnsongrass [2, 15]: 5
Plant response rating, Johnsongrass [2, 16]: 45
Plant response rating, Johnsongrass [2, 17]: 0
Plant response rating, Johnsongrass [2, 18]: 25
Plant response rating, Johnsongrass [2, 19]: 80
Johnsongrass plant response rating [2, 20]: 85
Johnsongrass plant response rating [2, 21]: 5
Ragweed plant response rating [3, 14]: 80
Plant response rating, Ragweed [3, 15]: 95
Plant response rating, Ragweed [3, 16]: 90
Plant response rating, Ragweed [3, 17]: 85
Plant response rating, Ragweed [3, 18]: 90
Plant response rating, Ragweed [3, 19]: 100
Ragweed plant response rating [3, 20]: 95
Ragweed plant response rating [3, 21]: 90
Morningglory plant response rating [4, 14]: 80
Plant response rating, Morningglory [4, 15]: 95
Plant response rating, Morningglory [4, 16]: 100
Plant response rating, Morningglory [4, 17]: 75
Plant response rating, Morningglory [4, 18]: 85
Plant response rating, Morningglory [4, 19]: 90
Morningglory plant response rating [4, 20]: 90
Morningglory plant response rating [4, 21]: 90
Crabgrass, Large plant response rating [5, 14]: 10
Plant response rating, Crabgrass, Large [5, 15]: 35
Plant response rating, Crabgrass, Large [5, 16]: 60
Plant response rating, Crabgrass, Large [5, 17]: 60
Plant response rating, Crabgrass, Large [5, 18]: 80
Plant response rating, Crabgrass, Large [5, 19]: 65
Crabgrass, Large plant response rating [5, 20]: 85
Crabgrass, Large plant response rating [5, 21]: 25
Oilseed Rape plant response rating [6, 14]: 40
Plant response rating, Oilseed Rape [6, 15]: 20
Plant response rating, Oilseed Rape [6, 16]: 85
Plant response rating, Oilseed Rape [6, 17]: 30
Plant response rating, Oilseed Rape [6, 18]: 35
Plant response rating, Oilseed Rape [6, 19]: 80
Oilseed Rape plant response rating [6, 20]: 80
Oilseed Rape plant response rating [6, 21]: 35
Foxtail, Giant plant response rating [7, 14]: 50
Plant response rating, Foxtail, Giant [7, 15]: 75
Plant response rating, Foxtail, Giant [7, 16]: 85
Plant response rating, Foxtail, Giant [7, 17]: 60
Plant response rating, Foxtail, Giant [7, 18]: 70
Plant response rating, Foxtail, Giant [7, 19]: 85
Foxtail, Giant plant response rating [7, 20]: 85
Foxtail, Giant plant response rating [7, 21]: 70
Lambsquarters plant response rating [8, 14]: 85
Plant response rating, Lambsquarters [8, 15]: 90
Plant response rating, Lambsquarters [8, 16]: 95
Plant response rating, Lambsquarters [8, 17]: 60
Plant response rating, Lambsquarters [8, 18]: 65
Plant response rating, Lambsquarters [8, 19]: 85
Lambsquarters plant response rating [8, 20]: 90
Lambsquarters plant response rating [8, 21]: 85
Galium plant response rating [9, 14]: 80
Plant response rating, Galium [9, 15]: 95
Plant response rating, Galium [9, 16]: 95
Plant response rating, Galium [9, 17]: 90
Plant response rating, Galium [9, 18]: 90
Plant response rating, Galium [9, 19]: 95
Galium plant response rating [9, 20]: 95
Galium plant response rating [9, 21]: 95
Barnyardgrass plant response rating [10, 14]: 35
Plant response rating, Barnyardgrass [10, 15]: 50
Plant response rating, Barnyardgrass [10, 16]: 65
Plant response rating, Barnyardgrass [10, 17]: 10
Plant response rating, Barnyardgrass [10, 18]: 20
Plant response rating, Barnyardgrass [10, 19]: 55
Barnyardgrass plant response rating [10, 20]: 80
Barnyardgrass plant response rating [10, 21]: 40
Ryegrass, Italian plant response rating [11, 14]: 85
Plant response rating, Ryegrass, Italian [11, 15]: 90
Plant response rating, Ryegrass, Italian [11, 16]: 90
Plant response rating, Ryegrass, Italian [11, 17]: 90
Plant response rating, Ryegrass, Italian [11, 18]: 90
Plant response rating, Ryegrass, Italian [11, 19]: 90
Ryegrass, Italian plant response rating [11, 20]: 90
Ryegrass, Italian plant response rating [11, 21]: 90
Plant response rating, Galium [12, 22]: 90
Galium plant response rating [12, 23]: 100
Plant response rating, Blackgrass [13, 22]: 70
Blackgrass plant response rating [13, 23]: 90
